Experimental data: patent US7615361B2, “Toxicity screening methods” (Ceetox, Inc., priority 2006, dated 2009)

What was measured:
H4IIE cells = assay: MTT reduction; assay type: cell-based, rat; conditions: rat, 24 h
In short: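 Rat hepatoma H4IIE cells exposed to compound prepared in complete culture medium, with tetrazolium dye (MTT) reduction used as a mitochondrial-function read-out of cytotoxicity. Values are means of each exposure group (n=3-7).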

ANP = assay: bDNA analysis of mRNA in rat cardiomyocytes; assay type: cell-based; conditions: rat cardiomyocytes, 1, 3, 6 and 24 hours
From the text: (§1) Hypertrophy of the heart ventricular myocytes is regulated by a complex series of intracellular signaling processes involving angiotensin receptors and a series of down stream gene expression changes (Li et al. 2006). Endothelin-1 (ET-1) induces hypertrophy of cardiomyocytes in vivo and in vitro. The mechanism of ET-1-induced hypertrophy consists in the activation of phospholipase C, protein kinase C, extra cellular signal regulated kinase (ERK) and upregulation of cfos and cjun.
(§2) Expression of ANP and BNP mRNA levels was determined by bDNA analysis of mRNA. ET-1 at 0.1 μM was included as a positive control.
(§3) […] Plates were mixed using a DPC 5 Micromix plate shaker at 37° C. for 15-30 minutes to ensure complete lysis of cells. Cell lysis was confirmed using a Nikon inverted microscope. Plates were stored at −80° C. until further analysis.
(§4) bDNA Analysis (Day 1): All solutions were prepared fresh on the day of analysis. Quantigene® bDNA kit components were brought to room temperature prior to use. Chemicals not supplied by Genospectra were obtained from Sigma-Aldrich.
(§5) On the day of analysis, Target Probe Sets were prepared for probe gene sets by adding 25 μL of each probe set component (CE, LE, BL) to 425 μL stock lysis solution using the following probe set concentrations: CE (50 fmol/μL), LE (200 fmol/μL), BL (100 fmol/μL).
(§6) Cell lysis plates were removed from freezer storage and thawed. […] Next, 10 μL of the appropriate Target Probe Set (PS2) was added to each appropriate well of the Capture Plate. Plates were tightly sealed using a plate sealer and incubated at 53° C. for 16-20 hr (overnight).
(§7) bDNA Analysis (Day 2): Wash buffer was prepared in ultra-pure water using 0.1×Saline-Sodium Citrate (SSC) and 0.03% Lithium Lauryl Sulfate (LLS). Amplifier working solution was prepared by adding 10 μL Amplifier to 10 mL Amplifier Diluent per plate.
(§8) Plates were removed from incubator and washed three times with 300 μL wash buffer. Wash buffer was completely removed from plates by aspiration and 100 μL Amplifier working solution was added to each well. Plates were sealed and incubated at 46° C. for 1 hr.
(§9) Label Probe working solution was prepared by adding 10 μL Label Probe to 10 mL Label Probe Diluent per plate. […] Plates were sealed and incubated at 46° C. for 1 hr.

BNP = assay: bDNA analysis of mRNA in rat cardiomyocytes; assay type: cell-based; conditions: rat cardiomyocytes, 1, 3, 6 and 24 hours
From the text: as §1, §2, §3, §4, §5, §6, §7, §8, §9

[1] = test system: reactive oxygen species (ROS); assay: DCFDA fluorescence; assay type: cell-based, rat; conditions: 5 μM
Protocol: The production of reactive oxygen species (ROS) can be measured using 2′-7′dichloro-dihydrofluorescein diacetate (DCFDA).
Dihydro-2′,7′-dichloroflorescin-diacetate (DCFDA) for Monitoring Peroxide Formation: DCFDA (Sigma C-6827) was dissolved in DMSO at a concentration of 205 mM. The stock was diluted to 50 μM in phosphate buffered saline. Cells were preloaded with DCFDA for 1 hour prior to dosing with test compounds. Positive control wells were dosed with freshly prepared 300 μM t-Butyl hydroperoxide (tBHP). After compound exposure, the plates were washed with phosphate buffered saline and read at 485/530 in a Packard Fusion plate reader.
Dihydro-2′,7′-dichloroflorescin-diacetate (DCFDA) for Monitoring Peroxide Formation: Plates were read at 485/530 in a Packard Fusion plate reader or equivalent.

COc1cccc2c1C(=O)c1c(O)c3c(c(O)c1C2=O)C[C@@](O)(C(=O)CO)C[C@@H]3O[C@H]1C[C@H](N)[C@H](O)[C@H](C)O1 [ADRIAMYCIN, Adriamycin]
CC50 (H4IIE cells): 26 µM
MTT affected less in liver cells compared to myocytes (H4IIE cells): approximately 13 fold
effect on ANP expression (ANP): no effect
effect on BNP expression (BNP): no effect
increase in DCFDA (ROS related) fluorescence [1]: 4 fold
